Assays:
[1] = Formation Constant (Log KML) of metal chelant complex with calcium; format: physicochemical; conditions: formation constant for calcium, concentrations in mol/dm^3, logarithm
Text: (§1) The Formation Constant of a metal chelant interaction is defined as: [formula] where: [ML]=concentration of metal ligand complex at equilibrium [M]=concentration of free metal ion [L]=concentration of free ligand in a fully deprotonated form KML=formation constant for the metal chelant complex. All concentrations are expressed in mol/dm^3. Formation Constants are conveniently expressed as logarithms.

[2] = Formation Constant (Log KML) of metal chelant complex with copper; format: physicochemical; conditions: formation constant for copper, concentrations in mol/dm^3, logarithm
Text: as §1

| SMILES | Log KML Ca [1] | Log KML Cu [2] |
| --- | --- | --- |
| C[C@H](N)C(=O)O [Alanine] | 1.3 | 8.1 |
| NCC(=O)O [Glycine] | 1.1 | 8.2 |
| N[C@@H](Cc1c[nH]cn1)C(=O)O [Histidine] | 1.2 | 10.2 |
| O=C(O)[C@@H]1CCCN1 [Proline] | – | 8.8 |
| N[C@@H](Cc1c[nH]c2ccccc12)C(=O)O [Tryptophan] | – | 8.2 |

Second part, the compound after the results:

| Log KML Ca [1] | Log KML Cu [2] | SMILES |
| --- | --- | --- |
| – | 7.8 | NC(=O)C[C@H](N)C(=O)O [Asparagine] |
| 4.6 | 18.4 | O=C(O)CC(NCCNC(CC(=O)O)C(=O)O)C(=O)O (centres unmarked) [EDDS, ethylenediamine-N,N′-disuccinic acid] |
| – | 7.7 | NC(=O)CC[C@H](N)C(=O)O [Glutamine] |
| 1.4 | 7.9 | N[C@@H](CO)C(=O)O [Serine] |

— US9642787B2, “Method of inhibiting copper deposition on hair” (The Procter & Gamble Company, priority 2014, dated 2017)
